From US20100173959A1, “METHOD OF PROTECTING A PLANT PROPAGATION MATERIAL, A PLANT, AND/OR PLANT ORGANS” (SYNGENTA CROP PROTECTION, INC., priority 2007, published 2010)

Assays:
[1] = tested on: cabbage aphid (Myzus persicae); experiment: Example 2: Chinese cabbage seed treatment, reduction of cabbage aphid; format: in vivo; settings: infested 14 days after sowing, counted 7 days after infestation
Protocol: Chinese cabbage seeds are treated with P1.1, P1.5, P1.6, P1.8, P1.32 or P1.38 at rates of 0.3 and 0.6 mg a.i./seed. The seeds are sown into 9-cm pots filled with 280 mL of soil. After placing the seeds on the soil surface they are covered with 50 mL of soil. Before and during the bioassays, the plants are grown in greenhouse chambers at 25° C. during daytime, 23° C. during night, 50-60% rH, a 14-hour photoperiod and artificial lighting when natural light fell below 20 kLux. After sowing, the pots are transferred to the greenhouse chambers, set up in a random fashion and are irrigated as necessary from above. After 14 days, the plants are infested with cabbage aphid (Myzus persicae) by placing one infested pea seedling containing approximately 150 aphids of a population of mixed developmental stages onto each plant. Seven days after infestation, the number of aphids is counted per plant. Each treatment group is replicated 10 times. Each replicate contains 1 plant.

[2] = tested on: African bean aphid (Aphis craccivora); experiment: Example 1: sugarbeet seed treatment, reduction of African bean aphid; format: in vivo; settings: infested 14 days after sowing, counted 7 days after infestation
Protocol: Sugarbeet seeds are treated with P1.1, P1.5, P1.6, P1.8, P1.32 or P1.38 at rates of 0.1, 0.3 and 0.6 mg a.i./seed. The seeds are sown into 9-cm pots filled with 280 mL of soil. After placing the seeds on the soil surface they are covered with 50 mL of soil. Before and during the bioassays, the plants are grown in greenhouse chambers at 25° C. during daytime, 23° C. during night, 50-60% rH, a 14-hour photoperiod and artificial lighting when natural light fell below 20 kLux. After sowing, the pots are transferred to the greenhouse chambers, set up in a random fashion and are irrigated as necessary from above. After 14 days, the plants are infested with African bean aphid (Aphis craccivora) by placing one infested pea seedling containing approximately 150 aphids of a population of mixed developmental stages onto each plant. Seven days after infestation, the number of aphids is counted per plant. Each treatment group is replicated 10 times. Each replicate contains 1 plant.

Myzus persicae [3] = experiment: B1: Myzus persicae (Green Peach Aphid), mixed population, sachet test; format: in vivo; settings: 144 h, 12.5 ppm in 30% sucrose solution, 6 days after infestation, read-out: control of Myzus persicae (mortality, feeding activity)
Protocol: B1: Myzus persicae (Green Peach Aphid) (Mixed Population, Sachet Test)
Each well of a 24-well microtiter plate is filled with 0.6 ml 30% sucrose solution, containing 12.5 ppm of the test compounds. For producing the sachets, the wells are covered with stretched parafilm and infested with a mixed population of Myzus persicae. 6 days after the infestation, samples are checked for mortality (feeding activity).

Myzus persicae [4] = experiment: B2: Myzus persicae (Green Peach Aphid), mixed population, systemic/feeding activity, curative; format: in vivo; settings: 144 h, roots of infested pea seedlings in test solution of 6 ppm, 6 days after introduction, read-out: control of Myzus persicae (mortality)
Excerpt: B2: Myzus persicae (Green Peach Aphid) (Mixed Population, Systemic/Feeding Activity, Curative)
Roots of pea seedlings, infested with an aphid population of mixed ages, are placed directly in the test solutions of 6 ppm. 6 days after introduction, samples are checked for mortality and special effects on the plant.

Row | melting point | SMILES | Efficacy, % (reduction of aphids compared to untreated control plants) ([1]; 0.3 mg/seed) | Efficacy, % (reduction of aphids compared to untreated control plants) ([1]; 0.6 mg/seed) | Efficacy, % (reduction of aphids compared to untreated control plants) ([2]; 0.1 mg/seed) | Efficacy, % (reduction of aphids compared to untreated control plants) ([2]; 0.3 mg/seed) | Efficacy, % (reduction of aphids compared to untreated control plants) ([2]; 0.6 mg/seed) | mortality at 12.5 ppm (Myzus persicae [3]) | mortality at 6 ppm (Myzus persicae [4])
1 |  | COc1cccc2c1C(N)=NS2(=O)=O [P1.1, 3-Amino-4-methoxybenzo[d]isothiazole-1,1-dioxide] | 10% | 45% | 41% | 69% | 92% | 100% | 100%
2 |  | NC1=NS(=O)(=O)c2cccc(Cl)c21 [P1.5, 3-Amino-4-chlorobenzo[d]isothiazole-1,1-dioxide] | 11% | 64% | 87% |  |  | 100% | 100%
3 | 242 to 245 °C | COc1cccc2c1C(NC(C)=O)=NS2(=O)=O [P1.8, 3-Acetylamino-4-methoxybenzo[d]isothiazole-1,1-dioxide] | 0% | 28% | 8% | 72% | 95% |  | 
